Assay: log P determination (HPLC, calibration with unbranched alkan-2-ones)
Format: physicochemical
Settings: * LC-MS determination in the acidic range at pH 2.7, 0.1% aqueous formic acid and acetonitrile, linear gradient 10% to 95% acetonitrile
Experimental: The calibration is carried out using unbranched alkan-2-ones (having 3 to 16 carbon atoms) with known log P values (determination of the log P values by the retention times using linear interpolation between two successive alkanones). The lambda-maX values were determined in the maxima of the chromatographic signals using the UV spectra from 200 nm to 400 nm.

| Structure (SMILES) | log p |
| --- | --- |
| Cc1cc(C)n(C(C)(C)C(=O)N2CCC(c3nc(C(=O)OC(C)c4ccc(F)cc4)cs3)CC2)n1 (racemic) [compound 403] | 3.47* |
| Cc1c(Cl)c(C(F)(F)F)nn1C(C)C(=O)N1CCC(c2nc(C(=O)OC3CCCCC3)cs2)CC1 (racemic) [compound 769] | 4.58* |

Same assay, conditions: * LC-MS determination in the acidic range at pH 2.7, mobile phases 0.1% aqueous formic acid and acetonitrile (0.1% formic acid), linear gradient 10% to 95% acetonitrile; reversed-phase C 18 HPLC

| Structure (SMILES) | log p |
| --- | --- |
| CC=CC(CC)OC(=O)c1csc(C2CCN(C(=O)C(C)(C)n3nc(C)cc3C)CC2)n1 (mixture of isomers) [compound 799] | 3.78* |
| Cc1c(Cl)c(C(F)(F)F)nn1C(C)C(=O)N1CCC(c2nc(C(=O)Oc3cccc4ccccc34)cs2)CC1 (racemic) [compound 770] | 4.50* |

Same assay, conditions: * LC-MS determination in the acidic range, pH 2.7, 0.1% aqueous formic acid and acetonitrile, linear gradient 10% to 95% acetonitrile

| Structure (SMILES) | log p |
| --- | --- |
| Cc1cc(C(F)(F)F)nn1CC(=O)N1CCC(c2nc(C(=O)OC3CCCC3)cs2)CC1 [compound 3] | 3.40* |
| Cc1cc(C(F)(F)F)nn1CC(=O)N1CCC(c2nc(C(=O)OC3CCc4ccccc43)cs2)CC1 (stereo not shown) [compound 8] | 3.76* |
| Cc1cc(C(F)(F)F)nn1CC(=O)N1CCC(c2nc(C(=O)Oc3ccc4ccccc4c3)cs2)CC1 [compound 10] | 3.84* |
| Cc1cc(C(F)(F)F)nn1CC(=O)N1CCC(c2nc(C(=O)OCc3ccc(F)cc3)cs2)CC1 [compound 12] | 3.35* |
| Cc1cc(C(F)(F)F)nn1CC(=O)N1CCC(c2nc(C(=O)OCc3ccccc3)cs2)CC1 [compound 15] | 3.37* |
| Cc1cc(C(F)(F)F)nn1CC(=O)N1CCC(c2nc(C(=O)OCc3ccc(Cl)cc3)cs2)CC1 [compound 17] | 3.73* |
| Cc1ccc(COC(=O)c2csc(C3CCN(C(=O)Cn4nc(C(F)(F)F)cc4C)CC3)n2)cc1 [compound 18] | 4.21* |
| COc1ccc(COC(=O)c2csc(C3CCN(C(=O)Cn4nc(C(F)(F)F)cc4C)CC3)n2)cc1 [compound 19] | 3.30* |
| Cc1cc(C(F)(F)F)nn1CC(=O)N1CCC(c2nc(C(=O)OCc3ccc(Cl)cc3Cl)cs2)CC1 [compound 20] | 3.69* |
| Cc1cc(C(F)(F)F)nn1CC(=O)N1CCC(c2nc(C(=O)OCc3cc(Cl)cc(Cl)c3)cs2)CC1 [compound 21] | 4.24* |
| Cc1cc(C(F)(F)F)nn1CC(=O)N1CCC(c2nc(C(=O)OCc3c(Cl)cccc3Cl)cs2)CC1 [compound 22] | 3.94* |
| Cc1cc(C(F)(F)F)nn1CC(=O)N1CCC(c2nc(C(=O)OCc3cccc(Cl)c3)cs2)CC1 [compound 24] | 3.72* |
| Cc1cc(C(F)(F)F)nn1CC(=O)N1CCC(c2nc(C(=O)OCc3cccc(C(F)(F)F)c3)cs2)CC1 [compound 25] | 3.81* |
| Cc1cc(C(F)(F)F)nn1CC(=O)N1CCC(c2nc(C(=O)OCc3ccc([N+](=O)[O-])cc3)cs2)CC1 [compound 28] | 3.22* |
| Cc1cc(C(F)(F)F)nn1CC(=O)N1CCC(c2nc(C(=O)OCc3ccc(C(C)(C)C)cc3)cs2)CC1 [compound 29] | 4.57* |

Same assay, conditions: pH 2.7; read-out: log P (pH 2.7)

| Structure (SMILES) | chromatographic logP |
| --- | --- |
| O=C(O)c1csc(C2CCN(C(=O)Cn3nc(C(F)F)cc3C(F)F)CC2)n1 [III-1, 2-(1-{[3,5-Bis(difluoromethyl)-1H-pyrazol-1-yl]acetyl}piperidin-4-yl)-1,3-thiazole-4-carboxylic acid] | 1.71 |
| O=C(O)c1csc(C2CCN(C(=O)Cn3ccc(C(F)(F)F)n3)CC2)n1 [III-2, 2-(1-{[3-(Trifluoromethyl)-1H-pyrazol-1-yl]acetyl}piperidin-4-yl)-1,3-thiazole-4-carboxylic acid] | 1.65 |
| Cc1cc(C(F)(F)F)nn1CC(=O)N1CCCC(c2nc(C(=O)O)cs2)C1 (stereo not shown) [III-3, 2-(1-{[5-Methyl-3-(trifluoromethyl)-1H-pyrazol-1-yl]acetyl}piperidin-3-yl)-1,3-thiazole-4-carboxylic acid] | 1.9 |
| Cc1cc(C(F)(F)F)nn1CC(=O)N1CCC(c2nc(C(=O)O)cs2)CC1 [III-4, 2-(1-{[5-Methyl-3-(trifluoromethyl)-1H-pyrazol-1-yl]acetyl}piperidin-4-yl)-1,3-thiazole-4-carboxylic acid] | 1.82 |
| Cc1c(Cl)c(C(F)(F)F)nn1CC(=O)N1CCC(c2nc(C(=O)O)cs2)CC1 [III-5, 2-(1-{[4-Chloro-5-methyl-3-(trifluoromethyl)-1H-pyrazol-1-yl]acetyl}piperidin-4-yl)-1,3-thiazole-4-carboxylic acid] | 2.26 |
| CCOC(=O)c1csc(C2CCN(C(=O)Cn3nc(C(F)F)cc3C(F)F)CC2)n1 [IV-1, Ethyl 2-(1-{[3,5-bis(difluoromethyl)-1H-pyrazol-1-yl]acetyl}piperidin-4-yl)-1,3-thiazole-4-carboxylate] | 2.52 |
| CCOC(=O)c1csc(C2CCN(C(=O)Cn3ccc(C(F)(F)F)n3)CC2)n1 [IV-2, Ethyl 2-(1-{[3-(trifluoromethyl)-1H-pyrazol-1-yl]acetyl}piperidin-4-yl)-1,3-thiazole-4-carboxylate] | 2.41 |
| CCOC(=O)c1csc(C2CCCN(C(=O)Cn3nc(C(F)(F)F)cc3C)C2)n1 (stereo not shown) [IV-3, Ethyl 2-(1-{[5-methyl-3-(trifluoromethyl)-1H-pyrazol-1-yl]acetyl}piperidin-3-yl)-1,3-thiazole-4-carboxylate] | 2.78 |
| CCOC(=O)c1csc(C2CCN(C(=O)Cn3nc(C(F)(F)F)cc3C)CC2)n1 [IV-5, Ethyl 2-(1-{[5-methyl-3-(trifluoromethyl)-1H-pyrazol-1-yl]acetyl}piperidin-4-yl)-1,3-thiazole-4-carboxylate] | 2.62 |
| CCOC(=O)c1csc(C2CCN(C(=O)Cn3nc(C(F)(F)F)c(Cl)c3C)CC2)n1 [IV-6, Ethyl 2-(1-{[4-chloro-5-methyl-3-(trifluoromethyl)-1H-pyrazol-1-yl]acetyl}piperidin-4-yl)-1,3-thiazole-4-carboxylate] | 3.17 |
| CC(C)(C)OC(=O)N1CCC(c2nc(C(=O)Oc3cccc4ccccc34)cs2)CC1 [IX-2, tert-Butyl 4-{4-[(1-naphthyloxy)carbonyl]-1,3-thiazol-2-yl}piperidine-1-carboxylate] | 4.5 |
| CC(C)(C)c1cc(C(F)(F)F)n(CC(=O)O)n1 [V-1, [3-tert-Butyl-5-(trifluoromethyl)-1H-pyrazol-1-yl]acetic acid] | 2.45 |
| CC(C)(C)c1cc(C(F)(F)F)nn1CC(=O)O [V-2, [5-tert-Butyl-3-(trifluoromethyl)-1H-pyrazol-1-yl]acetic acid] | 2.45 |
| CC(C)(C)c1cc(C(F)(F)C(F)(F)F)n(CC(=O)O)n1 [V-3, [3-tert-Butyl-5-(pentafluoroethyl)-1H-pyrazol-1-yl]acetic acid] | 2.92 |
| CC(C)(C)c1cc(C(F)(F)C(F)(F)F)nn1CC(=O)O [V-4, [5-tert-Butyl-3-(pentafluoroethyl)-1H-pyrazol-1-yl]acetic acid] | 2.75 |
| CC(C)c1cc(C(F)(F)F)n(CC(=O)O)n1 [V-5, [3-Isopropyl-5-(trifluoromethyl)-1H-pyrazol-1-yl]acetic acid] | 2.05 |
| CCOC(=O)c1csc(C2CCNCC2)n1 [VI-1, 4-[4-(Ethoxycarbonyl)-1,3-thiazol-2-yl]piperidinium chloride] | 0.42 |
| CCOC(=O)c1csc(C2CCCNC2)n1 (stereo not shown) [VI-2, 3-[4-(Ethoxycarbonyl)-1,3-thiazol-2-yl]piperidinium chloride] | 0.54 |
| O=C(Oc1cccc2ccccc12)c1csc(C2CCNCC2)n1 [X-2, 4-{4-[(1-Naphthyloxy)carbonyl]-1,3-thiazol-2-yl}piperidinium chloride] | 1.42 |
| CCOC(=O)Cn1nc(C(C)(C)C)cc1C(F)(F)F [XVI-1, Ethyl [3-tert-butyl-5-(trifluoromethyl)-1H-pyrazol-1-yl]acetate] | 3.89 |
| CCOC(=O)Cn1nc(C(F)(F)F)cc1C(C)(C)C [XVI-2, Ethyl [5-tert-butyl-3-(trifluoromethyl)-1H-pyrazol-1-yl]acetate] | 3.48 |
| CCOC(=O)Cn1nc(C(C)(C)C)cc1C(F)(F)C(F)(F)F [XVI-3, Ethyl [3-tert-butyl-5-(pentafluoroethyl)-1H-pyrazol-1-yl]acetate] | 4.45 |
| CCOC(=O)Cn1nc(C(F)(F)C(F)(F)F)cc1C(C)(C)C [XVI-4, Ethyl [5-tert-butyl-3-(pentafluoroethyl)-1H-pyrazol-1-yl]acetate] | 4.05 |
| CCOC(=O)Cn1nc(C(C)C)cc1C(F)(F)F [XVI-5, Ethyl [3-isopropyl-5-(trifluoromethyl)-1H-pyrazol-1-yl]acetate] | 3.22 |
| CCOC(=O)Cn1nc(C(F)(F)F)c(Cl)c1C [XVI-6, Ethyl [4-chloro-5-methyl-3-(trifluoromethyl)-1H-pyrazol-1-yl]acetate] | 3.11 |
| CC(C)(C)c1cc(C(F)(F)C(F)(F)F)[nH]n1 [XVIII-1, 3-tert-Butyl-5-(pentafluoroethyl)-1H-pyrazole] | 3.23 |
| Cc1cc(C(F)(F)F)nn1CC(=O)N1CCC(c2nc(C(=O)SCc3ccc(F)cc3)cs2)CC1 [compound 27, S-(4-Fluorobenzyl) 2-(1-{[5-methyl-3-(trifluoromethyl)-1H-pyrazol-1-yl]acetyl}piperidin-4-yl)-1,3-thiazole-4-carbothioate] | 4 |

Same assay, conditions: pH 7.8; read-out: log P (pH 7.8)

| Structure (SMILES) | chromatographic logP |
| --- | --- |
| CCOC(=O)c1csc(C2CCN(C(=O)C(C)(C)n3nc(C)cc3C)CC2)n1 [IV-4, Ethyl 2-{1-[2-(3,5-dimethyl-1H-pyrazol-1-yl)-2-methylpropanoyl]piperidin-4-yl}-1,3-thiazole-4-carboxylate] | 2.34 |
| Cc1c(Cl)c(C(F)(F)F)nn1CC(=O)O [V-6, [4-Chloro-5-methyl-3-(trifluoromethyl)-1H-pyrazol-1-yl]acetic acid] | 0.68 |

Same assay, conditions: reversed-phase (C18) HPLC column; * LC-MS determination in the acidic range, pH 2.7, 0.1% aqueous formic acid and acetonitrile, linear gradient 10% to 95% acetonitrile; read-out: log p

| Structure (SMILES) | chromatographic logP |
| --- | --- |
| Cc1cc(C(F)(F)F)nn1CC(=O)N1CCC(c2nc(C(=O)SCc3ccc(F)cc3)cs2)CC1 [compound 27, S-(4-Fluorobenzyl) 2-(1-{[5-methyl-3-(trifluoromethyl)-1H-pyrazol-1-yl]acetyl}piperidin-4-yl)-1,3-thiazole-4-carbothioate] | 4 |

Reference: patent publication US8569509B2, “Thiazole-4-carboxylic acid esters and thioesters as plant protection agents” (priority 2008, dated 2013)
